# Measurements as given in patent publication US8268881B2, “Carboxamide derivatives as muscarinic receptor antagonists” (Pfizer Limited, priority 2005, dated 2012).
# Target: T1, human muscarinic M3 receptor (Homo sapiens, UniProt P20309)
# T1 construct: expressed in transfected cells
# Assay: hM3 β-Lac potency assay (cell based β-lactamase)
# Settings: CHO cells expressing human M3 receptor, NFAT β-lactamase reporter; inhibition of 80 nM carbamyl choline signal, 4 h; IC50 converted to Ki by Cheng-Prusoff; read-out: Cell based β-lactamase M3 Ki
# Procedure: M3 potency was determined in CHO-K1 cells transfected with the NFAT-Betalactamase gene. CHO (Chinese Hamster Ovary) cells recombinantly expressing the human muscarinic M3 receptor were transfected with the NFAT_β-Lac_Zeo plasmid.
# The cells were re-suspended at 2×10^5 cells/ml in growth medium (composition as described above). […] Inhibition curves were plotted and IC50 values generated using a 4-parameter sigmoid fit and converted to Ki values using the Cheng-Prusoff correction and the KD value for carbamyl choline in the assay.
# T1 sequence (P20309 whole entry): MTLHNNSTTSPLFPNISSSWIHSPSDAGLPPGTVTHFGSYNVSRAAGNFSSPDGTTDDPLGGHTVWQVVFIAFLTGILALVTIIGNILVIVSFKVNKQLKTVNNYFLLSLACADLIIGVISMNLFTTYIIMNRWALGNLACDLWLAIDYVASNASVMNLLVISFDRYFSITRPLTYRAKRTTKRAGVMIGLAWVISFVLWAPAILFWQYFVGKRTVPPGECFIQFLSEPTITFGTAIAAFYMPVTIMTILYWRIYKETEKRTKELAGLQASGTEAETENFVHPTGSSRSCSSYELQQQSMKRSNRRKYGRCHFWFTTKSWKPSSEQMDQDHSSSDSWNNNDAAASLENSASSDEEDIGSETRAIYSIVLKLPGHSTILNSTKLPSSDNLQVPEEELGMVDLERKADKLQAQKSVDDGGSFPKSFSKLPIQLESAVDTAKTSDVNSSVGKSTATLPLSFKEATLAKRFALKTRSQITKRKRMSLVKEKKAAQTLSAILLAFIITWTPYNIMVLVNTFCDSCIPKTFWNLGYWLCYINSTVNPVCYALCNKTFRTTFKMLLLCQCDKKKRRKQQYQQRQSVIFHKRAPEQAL
row,SMILES,Ki [nM]
1,"CC(C)(CCC(C(N)=O)(c1ccccc1)c1ccccc1)N1CC[C@H](Oc2cc(O)cc(C#N)c2)C1 [Example 68, 5-[(3S)-3-(3-Cyano-5-hydroxy-phenoxy)-pyrrolidin-1-yl]-5-methyl-2,2-diphenylhexanamide]",9.88
2,"Cc1c(O)cccc1O[C@H]1CCN(C(C)(C)CCC(C(N)=O)(c2ccccc2)c2ccccc2)C1 [Example 30, 5-[(3S)-3-(3-Hydroxy-2-methyl-phenoxy)-pyrrolidin-1-yl]-5-methyl-2,2-diphenyl-hexanoic acid amide]",0.333
3,"CC(C)(CCC(C(N)=O)(c1ccccc1)c1ccccc1)N1CC[C@H](OCc2ccccc2)C1 [Example 11, 5-[(3S)-3-(Benzyloxy)pyrrolidin-1-yl]-5-methyl-2,2-diphenylhexanamide]",3.27
4,"COc1ccc(O[C@@H]2CCN(C(C)(C)CCC(C(N)=O)(c3ccccc3)c3ccccc3)C2)cc1Cl [Example 28, 5-[(3R)-3-(3-chloro-4-methoxy-phenoxy)pyrrolidin-1-yl]-5-methyl-2,2-diphenylhexanamide]",47.4
5,"CC(C)(CCC(C(N)=O)(c1ccccc1)c1ccccc1)N1CC[C@H](Oc2ccc(Cl)cc2)C1 [Example 16, 5-[(3S)-3-(4-Chlorophenoxy)pyrrolidin-1-yl]-5-methyl-2,2-diphenylhexanamide]",1.85
6,"CC(C)(CCC(C(N)=O)(c1ccccc1)c1ccccc1)N1CC[C@H](Oc2cccc(Br)c2)C1 [Example 17, 5-[(3S)-3-(3-Bromophenoxy)pyrrolidin-1-yl]-5-methyl-2,2-diphenylhexanamide]",5.11
7,"COc1cccc(O[C@@H]2CCN(C(C)(C)CCC(C(N)=O)(c3ccccc3)c3ccccc3)C2)c1 [Example 12, 5-[(3R)-3-(3-Methoxyphenoxy)pyrrolidin-1-yl]-5-methyl-2,2-diphenylhexanamide]",0.3
8,"CC(C)(CCC(C(N)=O)(c1ccccc1)c1ccccc1)N1CC[C@@H](Oc2ccc(O)c(Cl)c2)C1 [Example 72, 5-[(3R)-3-(3-chloro-4-hydroxyphenoxy)pyrrolidin-1-yl]-5-methyl-2,2-diphenylhexanamide]",1.23
9,"CC(C)(CCC(C#N)(c1ccccc1)c1ccccc1)N1CC[C@H](OCc2cccc(-c3ccccc3O)c2)C1 [Example 58, 5-{(3S)-3-[(2′-Hydroxybiphenyl-3-yl)methoxy]pyrrolidin-1-yl}-5-methyl-2,2-diphenylhexanenitrile]",1580
10,"COc1cc(F)cc(O[C@@H]2CCN(C(C)(C)CCC(C(N)=O)(c3ccccc3)c3ccccc3)C2)c1 [Example 73, 5-[(3R)-3-(3-Fluoro-5-methoxy-phenoxy)-pyrrolidin-1-yl]-5-methyl-2,2-diphenylhexanamide]",0.852
11,"CC(C)(CCC(C(N)=O)(c1ccccc1)c1ccccc1)N1CC[C@@H](Oc2cc(O)cc(C(F)(F)F)c2)C1 [Example 49, 5-[(3R)-3-(3-Hydroxy-5-trifluoromethyl-phenoxy)-pyrrolidin-1-yl]-5-methyl-2,2-diphenyl-hexanoic acid amide]",48.5
12,"CC(C)(CCC(C(N)=O)(c1ccccc1)c1ccccc1)N1CC[C@H](Oc2ccc(F)c(O)c2)C1 [Example 52, 5-[(3S)-3-(4-Fluoro-3-Hydroxy-phenoxy)-pyrrolidin-1-yl]-5-methyl-2,2-diphenyl-hexanoic acid amide]",2.16
13,"CC(C)(CCC(C(N)=O)(c1ccccc1)c1ccccc1)N1CC[C@H](Oc2cccc(-c3cccc(O)c3)c2)C1 [Example 19, 5-{(3S)-3-[(3′-Hydroxybiphenyl-3-yl)oxy]pyrrolidin-1-yl}-5-methyl-2,2-diphenylhexanamide]",5.56
14,"CC(C)(CCC(C(N)=O)(c1ccccc1)c1ccccc1)N1CC[C@H](OCc2cccc(-c3cccc(O)c3)c2)C1 [Example 61, 5-{(3S)-3-[(3′-Hydroxybiphenyl-3-yl)methoxy]pyrrolidin-1-yl}-5-methyl-2,2-diphenylhexanamide]",9.85
15,"COc1cccc(O[C@H]2CCN(C(C)(C)CCC(C(N)=O)(c3ccccc3)c3ccccc3)C2)c1 [Example 6, 5-[(3S)-3-(3-methoxyphenoxy)pyrrolidin-1-yl]-5-methyl-2,2-diphenylhexanamide]",1.02
16,"CC(C)(CCC(C(N)=O)(c1ccccc1)c1ccccc1)N1CC[C@H](Oc2ccc3ccc(O)cc3c2)C1 [Example 70, 5-[(3S)-3-[(7-Hydroxy-2-naphthyl)oxy]pyrrolidin-1-yl]-5-methyl-2,2-diphenylhexanamide]",19.1
17,"CC(C)(CCC(C(N)=O)(c1ccccc1)c1ccccc1)N1CC[C@H](Oc2ccc(Cl)c(O)c2)C1 [Example 39, 5-[(3S)-3-(4-Chloro-3-Hydroxy-phenoxy)-pyrrolidin-1-yl]-5-methyl-2,2-diphenylhexanoic acid amide]",1.97
18,"COc1cccc(O[C@H]2CCN(C(C)(C)CCC(C(N)=O)(c3ccccc3)c3ccccc3)C2)c1Cl [Example 37, 5-[(3S)-3-(2-Chloro-3-Methoxy-phenoxy)-pyrrolidin-1-yl]-5-methyl-2,2-diphenyl-hexanoic acid amide]",5.01
19,"CC(C)(CCC(C(N)=O)(c1ccccc1)c1ccccc1)N1CC[C@H](OCc2ccc(-c3cccc(O)c3)cc2)C1 [Example 65, 5-[(3S)-3-[(3′-Hydroxybiphenyl-4-yl)methoxy]pyrrolidin-1-yl]5-methyl-2,2-diphenylhexanamide]",62.7
20,"CC(C)(CCC(C(N)=O)(c1ccccc1)c1ccccc1)N1CC[C@H](Oc2cc(O)c(Cl)cc2Cl)C1 [Example 31, 5-[(3S)-3-(2,4-Dichloro-5-Hydroxy-phenoxy)-pyrrolidin-1-yl]-5-methyl-2,2-diphenyl-hexanoic acid amide]",45.1

# Other lines, results leading:
row,Ki [nM],SMILES
1,0.0488,"CC(C)(CCC(C(N)=O)(c1ccccc1)c1ccccc1)N1CC(Oc2ccccc2)C1 [Example 104, 5-Methyl-5-(3-phenoxyazetidin-1-yl)-2,2-diphenylhexanamide]"
2,0.229,"CC(C)(CCC(C(N)=O)(c1ccccc1)c1ccccc1)N1CC(OCc2ccc(O)cc2)C1 [Example 152, 5-[3-(4-Hydroxy-benzyloxy)-azetidin-1-yl]-5-methyl-2,2-diphenyl-hexanoic acid amide]"
3,110,CC(C)(CCC(C(N)=O)(c1ccccc1)c1ccccc1)N1CC(Oc2ccc(F)cc2O)C1 [Example 127]
4,0.604,"CC(C)(CCC(C(N)=O)(c1ccccc1)c1ccccc1)N1CC(Oc2cc(O)cc(F)c2)C1 [Example 121, 5-{3-(3-Fluoro-5-hydroxy-phenoxy)-azetidin-1-yl}-5-methyl-2,2-diphenylhexanamide]"
5,0.223,"CC(C)(CCC(C(N)=O)(c1ccccc1)c1ccccc1)N1CC(Oc2cc(O)cc(Cl)c2)C1 [Example 124, 5-[3-(3-Chloro-5-hydroxy-phenoxy)-azetidin-1-yl]-5-methyl-2,2-diphenylhexanamide]"
6,0.247,"CC(C)(CCC(C(N)=O)(c1ccccc1)c1ccccc1)N1CC(OCc2ccc(O)c(Cl)c2)C1 [Example 146, 5-[3-(3-Chloro-4-hydroxy-benzyloxy)-azetidin-1-yl]-5-methyl-2,2-diphenyl-hexanoic acid amide]"
7,1.26,"CC(C)(CCC(C#N)(c1ccccc1)c1ccccc1)N1CCC(Oc2ccccc2)CC1 [Example 86, 5-Methyl-5-(4-phenoxypiperidin-1-yl)-2,2-diphenylhexanenitrile]"
8,0.176,"CC(C)(CCC(C(N)=O)(c1ccccc1)c1ccccc1)N1CC(OCc2cccc(O)c2)C1 [Example 115, 5-[3-(3-Hydroxy-benzyloxy)-azetidin-1-yl]-5-methyl-2,2-diphenyl-hexanoic acid amide]"
9,0.201,"CC(C)(CCC(C(N)=O)(c1ccccc1)c1ccccc1)N1CC(Oc2cccc(O)c2)C1 [Example 108, 5-[3-(3-Hydroxyphenoxy)azetidin-1-yl]-5-methyl-2,2-diphenylhexanamide]"
10,12.4,"CC(C)(CCC(C(N)=O)(c1ccccc1)c1ccccc1)N1CCC(Oc2cc(F)c(C#N)cc2F)CC1 [Example 94, 5-[4-(4-Cyano-2,5-difluoro-phenoxy)-piperidin-1-yl]-5-methyl-2,2-diphenylhexanoic acid amide]"
11,7.22,"COc1cc(OC2CN(C(C)(C)CCC(C(N)=O)(c3ccccc3)c3ccccc3)C2)ccc1Cl [Example 113, 5-[3-(4-Chloro-3-methoxy-phenoxy)-azetidin-1-yl]-5-methyl-2,2-diphenylhexanamide]"
12,0.132,"CC(C)(CCC(C(N)=O)(c1ccccc1)c1ccccc1)N1CC(Oc2ccc(O)cc2)C1 [Example 107, 5-[3-(4-hydroxyphenoxy)azetidin-1-yl]-5-methyl-2,2-diphenylhexanamide]"
13,3.19,"CC(C)(CCC(C(N)=O)(c1ccccc1)c1ccccc1)N1CC[C@@H](OCc2cccc(O)c2Cl)C1 [Example 85, 5-[(3R)-3-(2-Chloro-3-hydroxy-benzyloxy)-pyrrolidin-1-yl]-5-methyl-2,2-diphenylhexanamide]"
14,4.96,"COc1cccc(O[C@@H]2CCN(C(C)(C)CCC(C(N)=O)(c3ccccc3)c3ccccc3)C2)c1Cl [Example 77, 5-[(3R)-3-(2-Chloro-3-methoxy-phenoxy)-pyrrolidin-1-yl]-5-methyl-2,2-diphenylhexanamide]"
15,35.4,"COc1cc(O[C@@H]2CCN(C(C)(C)CCC(C(N)=O)(c3ccccc3)c3ccccc3)C2)ccc1Cl [Example 81, 5-[(3R)-3-(3-methoxy-4-chloro-Phenoxy)-pyrrolidin-1-yl]-5-methyl-2,2-diphenylhexanamide]"
16,8.19,"CC(C)(CCC(C(N)=O)(c1ccccc1)c1ccccc1)N1CC(OCc2c(Cl)ccc(O)c2Cl)C1 [Example 128, 5-[3-(2,6-Dichloro-3-hydroxy-benzyloxy)-azetidin-1-yl]-5-methyl-2,2-diphenyl-hexanoic acid amide]"
17,7.96,"CC(C)(CCC(C(N)=O)(c1ccccc1)c1ccccc1)N1CC[C@@H](Oc2ccc(Cl)c(O)c2)C1 [Example 82, 5-[(3R)-3-(3-hydroxy-4-chloro-phenoxy)-pyrrolidin-1-yl]-5-methyl-2,2-diphenylhexanamide]"
